Assay results reported in article PMC8003975 (Cancers, 2021).

Columns and labels:
[1] = literature-reported biology of the tentatively identified metabolite; no reference given; cited from earlier work
Cal27 and JHU029 cells = assay: HNC cell cytotoxicity assay of other bitter melon compounds (Figure S1); format: cell-based, human; settings: 48 hr
Description: Cal27, JHU029, JHU022 and NOK were seeded in 96 well-plate (5000 cells/well) and cells were treated with different concentration of M-I for 48 h. There were untreated control and DMSO treated vehicle control group for comparison. Cytotoxicity assay was performed using Cell Counting Kit-8 (Dojindo Molecular Technology, Rockville, MD, USA) according to manufacturer instruction.
Supplementary Materials: Momordicine-I, a Bitter
Activity in Head and Neck Cancer Involving c-Met
Figure S1. Cal27 and JHU029 ells were treated with momordicine-I (M-I), momordicosideK (MK), karavilageninD (KD) at indicated doses for 48 hr and cytotoxicity assay was performed. Small bar indicates standard error.
Figure S2. Whole blot for Figure 2A. […]

[2] = design: method as in PMID 28441771, PMID 29231907, PMID 28587113; settings: preclinical and clinical studies; cited from earlier work

Molecule | Reported Biology [1] | further results
Sacranoside A | nitric oxide inhibitory effect | 
COC(C)(C)/C=C/C[C@@H](C)[C@H]1CC[C@@]2(C)[C@@H]3[C@@H](O[C@@H]4O[C@H](CO)[C@@H](O)[C@H](O)[C@H]4O)C=C4[C@@H](CC[C@H](O)C4(C)C)[C@]3(C=O)CC[C@]12C [MK, momordicoside K] |  | amount required for ~40% cell death (Cal27 and JHU029 cells): > 50 µg/mL
C[C@H](C/C=C/C(C)(C)O)[C@H]1CC[C@@]2(C)[C@@H]3[C@@H](O[C@@H]4O[C@H](CO)[C@@H](O)[C@H](O)[C@H]4O)C=C4[C@@H](CC[C@H](O)C4(C)C)[C@]3(C=O)CC[C@]12C [Momordicoside L] | Weak α-glucosidase inhibition | 
COc1cc2c(Oc3ccc(NC(=O)C4(C(=O)Nc5ccc(F)cc5)CC4)cc3F)ccnc2cc1OCCCN1CCOCC1 [Foretinib] |  | adverse side effects [2]: fatigue, hypertension, and gastrointestinal toxicities
CO[C@H]1C=C2[C@@H](CC[C@H](O[C@@H]3O[C@H](CO)[C@@H](O)[C@@H](O)[C@H]3O)C2(C)C)[C@]2(C)CC[C@]3(C)[C@@H]([C@H](C)C/C=C/C(C)(C)O)CC[C@@]3(C)[C@H]12 [Karaviloside III] | cytotoxic activity against Hep3B and HepG2 cell lines | 
C[C@H](C[C@@H](O)[C@H](O)C(C)(C)O)[C@H]1CC[C@@]2(C)[C@@H]3C=C[C@@]45OC[C@]3(CC[C@]12C)[C@@H]4CC[C@H](O[C@@H]1O[C@H](CO)[C@@H](O)[C@@H](O)[C@H]1O)C5(C)C [Karaviloside XI] | Antidiabetic | 
C[C@H](C/C=C/C(C)(C)O)[C@H]1CC[C@@]2(C)[C@@H]3C=C[C@@]45OC(=O)[C@]3(CC[C@]12C)[C@@H]4CC[C@H](O)C5(C)C [KD, karavilagenin D] |  | amount required for ~40% cell death (Cal27 and JHU029 cells): > 50 µg/mL
CN1CCN(C2CCN(C(=O)Nc3cc(Oc4ccc(NC(=O)C5(C(=O)Nc6ccc(F)cc6)CC5)c(F)c4)ccn3)CC2)CC1 [Golvatinib] |  | adverse side effects [2]: supraventricular tachycardia, convulsion, and pulmonary embolism
